Test results published in patent US20060088882A1, “Methods for the treatment or prevention of obesity” (priority 2002, published 2006).

Tests used:
VEGFR2 = VEGFR2 (Homo sapiens, UniProt P35968); settings: cited from earlier work
VEGFR1 = VEGFR1 (Homo sapiens, UniProt P17948); settings: cited from earlier work
preadipocytes [1] = settings: conditioned media from endothelial cells cultured in the presence of VEGF (50 ng/ml); day 11; normalized to SN control
Excerpt: Error bars represent standard error.
The media was changed every other day.

3T3-F442A preadipocytes = assay: In vitro differentiation of 3T3-F442A preadipocytes (Oil Red O staining); type: cell-based, mouse
Experimental: FIGS. 5A-5C are pictures of preadipocyte differentiation. FIG. 5A is a transillumination image of differentiated adipocytes in vitro. FIG. 5B is a fluorescence image of differentiated adipocytes in vivo. FIG. 5C is a picture showing the effect of PPARγ inhibition on adipogenesis. Preadipocytes (1×10^5 cells) were plated in a 6-well plate and transfected at a multiplicity of infection of 10^4 plaque forming units/cell using mock- (upper panels) or PPARγ-DN adenovirus (lower panels) and differentiation was promoted by using media containing 10% FBS.
FIG. 7A and 7B illustrate the effect of VEGF on preadipocyte differentiation and proliferation. To investigate the effects of VEGF on the in vitro differentiation of preadipocytes, 3T3-F442A cells were grown to confluence in media supplemented with calf serum (FCS, maintenance media), and exposed to increasing concentrations of murine recombinant VEGF164 (R&D Systems, Minneapolis, Minn.) from 0-100 ng/ml. […] Adipocyte differentiation was assessed by Oil Red O staining.
The bar indicates 50 μm. […] MTT assay was performed at day 4. […] Data are normalized to the control condition (FBS). Error bars represent standard error.
VEGFR2 expression was undetectable in the preadipocytes.

preadipocytes [2] = settings: conditioned media from endothelial cells cultured in the presence of VEGF and IgG; MTT assay
Experimental: For MTT assays, mouse recombinant VEGF (50 ng/ml) and PBS, and rat IgG (1 μg/ml) were used. MTT assay was performed at day 4. The optical density values were normalized to that of the PBS treated cells and were used as a measure of viability (FIGS. 8B and 8C). MTT assay for preadipocytes after four days of culture with endothelial conditioned media. “FBS” denotes non-conditioned culture media with 10% FBS; “SN” denotes supernatant, endothelial conditioned media cultured with 10% FBS but no other additives; “SN/VEGF/IgG” denotes endothelial conditioned media cultured with 10% FBS, VEGF (50 ng/ml) and non-specific IgG (5 μg/ml). Data are normalized to the control condition (FBS). Error bars represent standard error.
To assess the paracrine effects of VEGF on cell proliferation, preadipocytes were plated as described for FIG. 8B with conditioned media from endothelial cells cultured in the presence of VEGF and IgG. At day 5, the assay was perform as described, and the optical density for the cells cultured in non-conditioned media was used as a measure of viability.

preadipocytes [3] = settings: exogenous VEGF added to culture media, doses as high as 100 ng/ml; MTT assay
Experimental: For proliferation assays, 500 preadipocytes and fibroblasts were plated in 96 well plates, and mouse recombinant VEGF164 (50 ng/ml) and PBS were added (FIG. 7B). An MTT assay was performed at day 4, when the cells were still subconfluent in all wells. Culture media were changed with 100 μl of fresh media, and 10 μl of sterile tetrazolium salt, MTT (3[4,5-dimethylthiazol-2-yl]-2,5-diphenyl-tetrazolium bromide, Sigma) was added in each well and incubated for four hours at 37° C. Finally, 100 μl of 10% SDS were added, and after incubation at 37° C. overnight, the plate was read at 490 nm. The optical density values were normalized to that of the PBS treated cells and used as a measure of viability.
For MTT assays, mouse recombinant VEGF (50 ng/ml) and PBS, and rat IgG (1 μg/ml) were used. MTT assay was performed at day 4. The optical density values were normalized to that of the PBS treated cells and were used as a measure of viability (FIGS. 8B and 8C). MTT assay for preadipocytes after four days of culture with endothelial conditioned media. “FBS” denotes non-conditioned culture media with 10% FBS; “SN” denotes supernatant, endothelial conditioned media cultured with 10% FBS but no other additives; “SN/VEGF/IgG” denotes endothelial conditioned media cultured with 10% FBS, VEGF (50 ng/ml) and non-specific IgG (5 μg/ml). Data are normalized to the control condition (FBS). […]

VEGFR2, sequence (P35968 20-1356, species assumed): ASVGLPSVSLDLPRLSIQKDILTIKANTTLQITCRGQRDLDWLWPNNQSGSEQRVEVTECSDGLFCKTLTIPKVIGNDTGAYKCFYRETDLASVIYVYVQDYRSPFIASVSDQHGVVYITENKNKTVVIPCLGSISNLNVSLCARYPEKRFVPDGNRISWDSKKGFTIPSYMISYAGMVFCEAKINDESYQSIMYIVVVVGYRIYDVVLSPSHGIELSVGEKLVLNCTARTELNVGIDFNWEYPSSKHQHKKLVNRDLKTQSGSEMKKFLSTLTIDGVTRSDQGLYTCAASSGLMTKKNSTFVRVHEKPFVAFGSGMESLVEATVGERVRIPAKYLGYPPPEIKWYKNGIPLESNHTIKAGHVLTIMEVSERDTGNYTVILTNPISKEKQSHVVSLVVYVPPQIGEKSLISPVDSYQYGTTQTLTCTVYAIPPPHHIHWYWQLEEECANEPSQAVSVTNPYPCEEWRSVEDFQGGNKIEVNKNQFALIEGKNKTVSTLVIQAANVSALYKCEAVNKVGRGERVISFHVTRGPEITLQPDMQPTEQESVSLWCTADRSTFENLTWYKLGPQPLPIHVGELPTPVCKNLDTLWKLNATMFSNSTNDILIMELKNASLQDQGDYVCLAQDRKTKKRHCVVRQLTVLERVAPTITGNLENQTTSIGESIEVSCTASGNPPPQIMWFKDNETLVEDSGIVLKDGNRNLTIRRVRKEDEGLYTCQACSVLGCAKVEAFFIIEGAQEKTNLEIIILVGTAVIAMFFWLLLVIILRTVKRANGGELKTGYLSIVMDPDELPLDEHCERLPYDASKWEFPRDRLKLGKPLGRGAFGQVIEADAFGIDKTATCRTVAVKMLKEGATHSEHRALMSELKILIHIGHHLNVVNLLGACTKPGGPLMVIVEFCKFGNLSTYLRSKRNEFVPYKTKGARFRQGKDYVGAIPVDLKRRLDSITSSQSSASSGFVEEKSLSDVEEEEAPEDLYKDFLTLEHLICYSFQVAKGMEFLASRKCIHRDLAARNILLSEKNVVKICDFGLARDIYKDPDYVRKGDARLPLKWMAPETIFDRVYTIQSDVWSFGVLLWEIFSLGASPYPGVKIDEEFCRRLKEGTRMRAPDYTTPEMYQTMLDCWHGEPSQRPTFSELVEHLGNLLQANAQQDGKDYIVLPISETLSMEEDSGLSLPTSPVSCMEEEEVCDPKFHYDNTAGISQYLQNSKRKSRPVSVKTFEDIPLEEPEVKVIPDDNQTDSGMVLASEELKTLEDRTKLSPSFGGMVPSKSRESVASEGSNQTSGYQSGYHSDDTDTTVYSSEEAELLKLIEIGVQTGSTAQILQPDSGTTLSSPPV
VEGFR1, sequence (P17948 27-1338, species assumed): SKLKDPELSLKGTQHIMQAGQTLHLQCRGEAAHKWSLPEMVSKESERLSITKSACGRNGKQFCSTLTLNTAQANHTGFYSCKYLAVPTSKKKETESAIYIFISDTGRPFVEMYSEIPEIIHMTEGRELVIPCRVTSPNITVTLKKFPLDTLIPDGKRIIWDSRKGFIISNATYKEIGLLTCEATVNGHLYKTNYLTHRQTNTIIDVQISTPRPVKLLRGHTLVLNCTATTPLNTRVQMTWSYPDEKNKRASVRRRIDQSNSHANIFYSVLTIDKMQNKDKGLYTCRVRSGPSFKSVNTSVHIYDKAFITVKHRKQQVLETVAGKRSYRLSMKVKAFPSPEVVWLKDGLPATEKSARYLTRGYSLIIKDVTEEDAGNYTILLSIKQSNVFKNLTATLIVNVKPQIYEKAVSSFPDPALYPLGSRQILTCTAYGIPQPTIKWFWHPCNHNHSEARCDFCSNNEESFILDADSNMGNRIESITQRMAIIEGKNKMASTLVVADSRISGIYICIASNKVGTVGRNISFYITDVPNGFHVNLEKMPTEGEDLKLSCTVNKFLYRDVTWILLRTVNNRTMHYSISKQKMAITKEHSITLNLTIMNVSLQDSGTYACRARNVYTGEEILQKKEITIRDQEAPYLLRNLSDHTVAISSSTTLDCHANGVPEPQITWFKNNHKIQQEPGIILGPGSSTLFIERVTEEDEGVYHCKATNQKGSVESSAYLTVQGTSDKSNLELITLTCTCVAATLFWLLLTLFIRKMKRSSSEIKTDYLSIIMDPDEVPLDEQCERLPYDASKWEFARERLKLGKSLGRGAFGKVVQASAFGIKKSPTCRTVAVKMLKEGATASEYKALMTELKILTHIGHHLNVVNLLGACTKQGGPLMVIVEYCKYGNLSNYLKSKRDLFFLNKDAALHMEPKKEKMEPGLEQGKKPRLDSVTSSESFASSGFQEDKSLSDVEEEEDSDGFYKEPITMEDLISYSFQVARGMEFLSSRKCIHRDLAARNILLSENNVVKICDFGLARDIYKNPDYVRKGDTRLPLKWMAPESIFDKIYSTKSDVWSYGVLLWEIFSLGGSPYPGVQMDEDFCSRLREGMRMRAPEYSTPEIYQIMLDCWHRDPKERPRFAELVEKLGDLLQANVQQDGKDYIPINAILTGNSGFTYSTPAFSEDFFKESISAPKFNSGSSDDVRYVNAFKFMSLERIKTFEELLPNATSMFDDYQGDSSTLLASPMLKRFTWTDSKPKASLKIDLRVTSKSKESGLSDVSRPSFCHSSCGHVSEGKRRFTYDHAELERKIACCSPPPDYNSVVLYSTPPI

| Molecule | inhibition of VEGFR2 (VEGFR2) | inhibition of VEGFR1 (VEGFR1) | aP2 expression (differentiation of preadipocytes) (preadipocytes [1]) | differentiation rate of preadipocytes (3T3-F442A preadipocytes; differentiation media (10% FBS), VEGF 0-100 ng/ml or 50 ng/ml, Oil Red O staining) | adipose cell differentiation in vitro (3T3-F442A preadipocytes; exogenous VEGF added to culture media, doses as high as 100 ng/ml) | induction of differentiation in preadipocytes (3T3-F442A preadipocytes; maintenance media (10% calf serum), VEGF 0-100 ng/ml or 50 ng/ml, Oil Red O staining) | preadipocyte survival/proliferation (preadipocytes [2]) | adipose cell proliferation and survival in vitro (preadipocytes [3]) |
| --- | --- | --- | --- | --- | --- | --- | --- | --- |
| CCCNC(=O)Nc1ccc(Oc2ncnc3cc(OC)c(OC)cc23)cc1Cl [KRN633] | inhibits | inhibits | – | – | – | – | – | – |
| VEGF | – | – | almost three-fold increase | did not increase the differentiation rate | not significantly affected | did not induce differentiation | increased preadipocyte survival/proliferation | not significantly affected |
